These results are taken from patent US10683273B2, “Compounds as DNA probes, methods and applications thereof” (JAWAHARLAL NEHRU CENTRE FOR ADVANCED SCIENTIFIC RESEARCH, priority 2015, dated 2020).

Data set [1] has as its system (A-T)20. Briefly: Binding constant from fluorescence titration. The method, then: (§1) To determine the binding stoichiometry of QCy-DT with Drew-AT, continuous variation method is employed, varying the ligand concentrations to generate the Job plot by fixing the total concentration of [QCy-DT+Drew-AT] at 2 μM. […] The binding constants of [QCy-DT+DNA] complexes are calculated from the fluorescence titration experiments using non-linear (single-binding mode) curve fitting analysis. […] Next, the fluorescence quantum yield of QCy-DT is estimated in the presence of AT- and GC-rich DNA duplexes (Table 3) as follows: […]

The test system of data set [2] is (D1)mix. Briefly: Binding constant from fluorescence titration. The conditions noted are these: non-linear single-binding mode curve fitting. The method, then: as §1
Data set [3] has as its system Drew-AT. Briefly: Binding constant from fluorescence titration. To be noted: non-linear single-binding mode curve fitting. The method, then: as §1
Data set [4] in a line: Fluorescence quantum yield in absence of DNA. It is filed as physicochemical. The method, then:
Cresyl violet perchlorate in ethanol (ϕ=0.54) is used as the standard for the fluorescence quantum yield calculation using the absorption of the test sample. The emission spectral area is obtained in the 550-800 nm regions. Dilute solutions (10^−6 M) are used to minimize reabsorption effects of the dyes. Quantum yields are determined using the following equation, ϕs=ϕr(Fs/Fr)×(Ar/As)×(ns^2/nr^2)
Where, ϕr and ϕs are the quantum yield of reference and sample respectively, Fr and Fs are the integrated intensities (areas) of standard and sample spectra, nr and ns are the refractive indices of the reference and sample solution, Ar and As are the absorbance intensities of reference and sample respectively.

Data set [5] relates to (A-T)20. Briefly: UV-melting (UV-Tm) of DNA duplex with probe. The conditions noted are these: (A-T)20 with QCy-DT vs duplex alone. It is filed as binding. The method, then:
(§2) The UV-vis absorption and emission spectra are recorded on Agilent Technologies Cary series UV-vis-NIR absorbance and Cary eclipse fluorescence spectrophotometers, respectively. Thermal denaturation (UV-melting) studies are carried out on Cary 5000 UV-vis-NIR spectrophotometer equipped with Cary temperature controller in the range of 10° C. to 90° C. with a ramp rate of 1° C./min. The variable temperature/wavelength mode is used. Absorption is monitored at 260 nm with regular 5° C. intervals. Melting temperatures (Tm) of DNA samples are calculated from the first derivatives of the absorption vs. temperature curves (thermal denaturation or melting curves) obtained by monitoring at 260 nm.
(§3) To understand the effect of QCy-DT binding to DNA on the thermal stability of DNA, temperature-dependent UV-melting studies (UV-Tm) is performed on different [QCy-DT+DNA] complexes. […] Therefore, the binding affinity, fluorescence quantum yield, and UV-Tm data validated the preferential recognition of AT-rich DNA by QCy-DT probe compared to GC-rich DNA.

The subject of data set [6] is (D1)mix. Briefly: UV-melting (UV-Tm) of DNA duplex with probe. It is filed as binding. The conditions noted are these: (D1)mix with QCy-DT vs duplex alone. As for the experimental part:
as §2, §3

In data set [7] the test system is Drew AT. Briefly: UV-melting (UV-Tm) of DNA duplex with probe. The class given is binding. To be noted: Drew AT with QCy-DT vs duplex alone. The method, then:
as §2, §3

The test system of data set [8] is d(ATAT)5. Briefly: UV-melting (UV-Tm) of DNA duplex with probe. The class given is binding. To be noted: d(ATAT)5 with QCy-DT vs duplex alone. As for the experimental part:
as §2, §3

Data set [9] concerns HeLa cells. Briefly: Fluorescence study in fixed cells. To be noted: 0.5 and 1 μM, Hoechst as control. It is filed as cell-based. The method, then: HeLa cells are grown on the cover slip for about 24 hours in DMEM medium supplemented with 10% fetal bovine serum at about 37° C. in a humidified atmosphere containing 5% CO2 till 80% confluency is achieved. Then cells are fixed with 4% paraformaldehyde in PBS for 10 min. After rinsing twice with PBS, HeLa cells are treated separately with probe QCy-DT at various concentrations (0.5 μM and 1 μM) for 10 min at room temperature. Subsequently, cover slips are incubated with Hoechst 33258 at 10 μg/mL for nuclear staining. Fluorescence images are taken by Carl Zeiss Laser Scanning Microscope (LSM510 META).
In order to check its permeability, cellular uptake studies are carried out in live and fixed conditions of MCF-7 and HeLa cells, respectively. First, MCF-7 cells are incubated with probe QCy-DT (0.5 and 1 μM) without fixing, and live cell imaging is conducted using Carl Zeiss fluorescence microscope as described above. […] Next, HeLa cells are fixed and incubated with QCy-DT (0.5 and 1 μM) along with Hoechst as the control nuclear staining dye. […] Therefore, staining results obtained with live and fixed cells confirmed high cell permeability, efficiency (low staining concentration of 1 μM), and preferential targeting of cell nuclear DNA.

Data set [10] has as its system MCF-7 cells. Briefly: Photostability assay by confocal fluorescence microscopy. The class given is cell-based. To be noted: 2 μM. As for the experimental part:
MCF-7 Cells are propagated on 20 mm cover slips in a 6-well plate in DMEM medium supplemented with 10% fetal bovine serum at about 37° C. in a humidified atmosphere containing 5% CO2 till 80% confluency is achieved. Cells are incubated for a duration of about 60 min with probe QCy-DT (resuspended in Mili-Q water) at 2 μM concentration in a humidified CO2 incubator at about 37° C. Following treatment, the photostability of QCy-DT is measured by continuous scanning using OLYMPUS FV1000 confocal fluorescence microscope, under 568 nm line of an Argon ion laser for different time durations of about 10 sec, 120 sec and 300 sec. Olympus Fluoview software is used to quantitatively investigate the intensity of signals of QCy-DT at zero time points and after photo bleaching. The data is plotted with mean and standard error.

Data set [11] concerns P. falciparum strain 3D7. Briefly: Live fluorescence imaging of malaria parasites. It is filed as cell-based, Plasmodium falciparum. The conditions noted are these: 0.5 μM, early trophozoite stage, 30 min. As for the experimental part:
P. falciparum strain 3D7 is cultured. Briefly, malaria parasites are cultured in human erythrocytes in T75 flasks with RPMI 1640 (Gibco) supplemented with 10 μg/mL gentamicin (Sigma), 50 μg/mL ampicillin, 0.2% NaHCO3 (Sigma), 0.5% albumax (Invitrogen) and Hypoxanthine (27 mg/L). The culture is maintained under standard conditions (37° C. in 90% nitrogen, 5% CO2, and 5% O2). For synchronization of the parasites, ring-staged parasites are treated with 5% sorbitol at 37° C. for about 5-10 min, followed by washing with pre-warmed incomplete medium twice, and placed back in complete medium. QCy-DT probe (resuspended in Mili-Q water) is added to parasites (25±2 hpi) at a final concentration of 0.5 μM and the parasites are incubated for 30 min at 37° C. Following treatment fluorescence imaging of the parasites is performed using Carl Zeiss AXIO Imager Z1 and the software used for image capturing was AxioVision Rel. 4.8.

In general, ΔTm refers to the shift of the melting midpoint relative to a reference. As for `C[n+]1c(/C=C/c2ccc(O)c(/C=C/c3sc4ccccc4[n+]3C)c2)sc2ccccc21` [QCy-DT, quinone cyanine-dithiazole], the “binding affinity Ka” value in [1] (non-linear single-binding mode curve fitting) is 2.9e+06 M⁻¹; in data set [2], 430000 M⁻¹; in data set [3], 1.5e+06 M⁻¹. Moreover, the “binding affinity for (A-T)20 higher than for Drew-AT” value in [1] (ratio of Ka) is 2 fold. Besides, the “Quantum Yield (ΦF)” value was about 0.07 in data set [4] (Glycerol) and 0.0039 in data set [4] (Tris-HCl buffer 100 mM, pH 7.4, probe alone). Further, the shift in melting temperature (ΔTm) in data set [5] came to 6.2 °C; in data set [6], 2.5 °C; in data set [7], 4.2 °C; in data set [8] it was 3.5 °C. Also, the nuclear staining entry in data set [9] is “selective staining of the cell nucleus, and remarkable co-localization with Hoechst dye”. This compound registered a remainder fluorescence intensity in [10] (MCF-7, 120-second argon ion laser excitation at 568 nm) of about 80%. For the same compound, in data set [10] (MCF-7, 300 sec excitation at 568 nm), the fluorescent signal intensity is about 50%. Further, the parasite staining entry in data set [11] was “specifically stain the parasite nuclei”.
